In US20230085307A1, “PYRIDAZINONE COMPOUND AND HERBICIDE” (NISSAN CHEMICAL CORPORATION, priority 2019, published 2023):

Columns and labels:
barnyard grass [1] = assay: Test Example 3: herbicidal effect by foliage application, Wagner pot (Table 18, symbol H); format: in vivo, barnyard grass (Echinochloa crus-galli); conditions: for herbicidal effect on H: barnyard grass: amount of applied herbicide 320 g/ha
Outline: (§1)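 Plants were sown in alluvial soil held under 0.1–0.5 cm standing water and grown 14 days in a greenhouse at 25–30 °C. An emulsifiable formulation, water-diluted to the set dose, was then sprayed onto the foliage, and effects were scored three weeks later using previously defined criteria.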

Chinese sprangletop = assay: Test Example 3: herbicidal effect by foliage application, Wagner pot (Table 18, symbol D); format: in vivo, chinese sprangletop (Leptochloa chinensis); conditions: for herbicidal effect on D: Chinese sprangletop: amount of applied herbicide 320 g/ha
Outline: as §1

rice flat sedge = assay: Test Example 3: herbicidal effect by foliage application, Wagner pot (Table 18, symbol E); format: in vivo, rice flat sedge (Cyperus iria); conditions: for herbicidal effect on E: rice flat sedge: amount of applied herbicide 320 g/ha
Outline: as §1

southern crabgrass = assay: Test Example 5: herbicidal effect by foliage application, plastic box (Table 20, symbol F); format: in vivo, southern crabgrass (Digitaria ciliaris); conditions: foliage application; for F: southern crabgrass, herbicidal effect: three weeks after application; for herbicidal effect on F: southern crabgrass (criteria 0-5): 320 g/ha, evaluated three weeks after application
Outline: (§2)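 Sow seeds spot-wise in sterilized diluvial soil; cover with ~1.5 cm soil. Grow 14 days in greenhouse, 25° C. to 30° C. Spray foliage with emulsion diluted to predetermined amount. Rate effect after 3 weeks.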

green foxtail = assay: Test Example 5: herbicidal effect by foliage application, plastic box (Table 20, symbol G); format: in vivo, green foxtail (Setaria viridis); conditions: foliage application; for G: green foxtail, herbicidal effect: three weeks after application; for herbicidal effect on G: green foxtail (criteria 0-5): 320 g/ha, evaluated three weeks after application
Outline: as §2

barnyard grass [2] = assay: Test Example 5: herbicidal effect by foliage application, plastic box (Table 20, symbol H); format: in vivo, barnyard grass (Echinochloa crus-galli); conditions: foliage application; for H: barnyard grass, herbicidal effect: three weeks after application; for herbicidal effect on H: barnyard grass (criteria 0-5): 320 g/ha, evaluated three weeks after application
Outline: as §2

wild oat = assay: Test Example 5: herbicidal effect by foliage application, plastic box (Table 20, symbol I); format: in vivo, wild oat (Avena fatua); conditions: foliage application; for I: wild oat, herbicidal effect: three weeks after application; for herbicidal effect on I: wild oat (criteria 0-5): 320 g/ha, evaluated three weeks after application
Outline: as §2

blackgrass = assay: Test Example 5: herbicidal effect by foliage application, plastic box (Table 20, symbol J); format: in vivo, blackgrass (Alopecurus myosuroides); conditions: foliage application; for J: blackgrass, herbicidal effect: three weeks after application; for herbicidal effect on J: blackgrass (criteria 0-5): 320 g/ha, evaluated three weeks after application
Outline: as §2

Italian ryegrass = assay: Test Example 5: herbicidal effect by foliage application, plastic box (Table 20, symbol K); format: in vivo, Italian ryegrass (Lolium multiflorum); conditions: foliage application; for K: Italian ryegrass, herbicidal effect: three weeks after application; for herbicidal effect on K: Italian ryegrass (criteria 0-5): 320 g/ha, evaluated three weeks after application
Outline: as §2

windgrass = assay: Test Example 5: herbicidal effect by foliage application, plastic box (Table 20, symbol L); format: in vivo, windgrass (Apera spica-venti); conditions: foliage application; for L: windgrass, herbicidal effect: three weeks after application; for herbicidal effect on L: windgrass (criteria 0-5): 320 g/ha, evaluated three weeks after application
Outline: as §2

velvetleaf = assay: Test Example 5: herbicidal effect by foliage application, plastic box (Table 20, symbol M); format: in vivo, velvetleaf (Abutilon theophrasti); conditions: foliage application; for M: velvetleaf, herbicidal effect: three weeks after application; for herbicidal effect on M: velvetleaf (criteria 0-5): 320 g/ha, evaluated three weeks after application
Outline: as §2

redroot pigweed = assay: Test Example 5: herbicidal effect by foliage application, plastic box (Table 20, symbol N); format: in vivo, redroot pigweed (Amaranthus retroflexus); conditions: foliage application; for N: redroot pigweed, herbicidal effect: three weeks after application; for herbicidal effect on N: redroot pigweed (criteria 0-5): 320 g/ha, evaluated three weeks after application
Outline: as §2

lambsquarters = assay: Test Example 5: herbicidal effect by foliage application, plastic box (Table 20, symbol O); format: in vivo, lambsquarters (Chenopodium album); conditions: foliage application; for O: lambsquarters, herbicidal effect: three weeks after application; for herbicidal effect on O: lambsquarters (criteria 0-5): 320 g/ha, evaluated three weeks after application
Outline: as §2

chickweed = assay: Test Example 5: herbicidal effect by foliage application, plastic box (Table 20, symbol P); format: in vivo, common chickweed (Stellaria media); conditions: foliage application; for P: chickweed, herbicidal effect: three weeks after application; for herbicidal effect on P: chickweed (criteria 0-5): 320 g/ha, evaluated three weeks after application
Outline: as §2

false cleavers = assay: Test Example 5: herbicidal effect by foliage application, plastic box (Table 20, symbol Q); format: in vivo, false cleavers (Galium spurium); conditions: foliage application; for Q: false cleavers, herbicidal effect: three weeks after application; for herbicidal effect on Q: false cleavers (criteria 0-5): 320 g/ha, evaluated three weeks after application
Outline: as §2

persian speedwell = assay: Test Example 5: herbicidal effect by foliage application, plastic box (Table 20, symbol R); format: in vivo, Persian speedwell (Veronica persica); conditions: foliage application; for R: persian speedwell, herbicidal effect: three weeks after application; for herbicidal effect on R: persian speedwell (criteria 0-5): 320 g/ha, evaluated three weeks after application
Outline: as §2

Row | SMILES | herbicidal effect on H: barnyard grass (barnyard grass [1]) | herbicidal effect on D: Chinese sprangletop (Chinese sprangletop) | herbicidal effect on E: rice flat sedge (rice flat sedge) | herbicidal effect on F: southern crabgrass (criteria 0-5) (southern crabgrass) | herbicidal effect on G: green foxtail (criteria 0-5) (green foxtail) | herbicidal effect on H: barnyard grass (criteria 0-5) (barnyard grass [2]) | herbicidal effect on I: wild oat (criteria 0-5) (wild oat) | herbicidal effect on J: blackgrass (criteria 0-5) (blackgrass) | herbicidal effect on K: Italian ryegrass (criteria 0-5) (Italian ryegrass) | herbicidal effect on L: windgrass (criteria 0-5) (windgrass) | herbicidal effect on M: velvetleaf (criteria 0-5) (velvetleaf) | herbicidal effect on N: redroot pigweed (criteria 0-5) (redroot pigweed) | herbicidal effect on O: lambsquarters (criteria 0-5) (lambsquarters) | herbicidal effect on P: chickweed (criteria 0-5) (chickweed) | herbicidal effect on Q: false cleavers (criteria 0-5) (false cleavers) | herbicidal effect on R: persian speedwell (criteria 0-5) (persian speedwell) | other results
1 | CCCC(=O)Oc1c(C)nn(C)c(=O)c1-c1c(-c2cc3c(cc2Cl)OCCO3)sc2ccccc12 [1-096] |  |  |  |  |  |  |  |  |  |  |  |  |  |  |  |  | herbicidal effect on H (barnyard grass), rating 0-5 (barnyard grass [1]; 485 g/ha): 5 (Herbicidal rate of 90% or more (almost completely withered)); herbicidal effect on D (Chinese sprangletop), rating 0-5 (Chinese sprangletop; 485 g/ha): 2 (Herbicidal rate of 20% or more and less than 40%); herbicidal effect on E (rice flat sedge), rating 0-5 (rice flat sedge; 485 g/ha): 0 (Herbicidal rate of 5% or less (almost no effect)); F: southern crabgrass, herbicidal effect (southern crabgrass; AAH 485 g/ha): 2 (Herbicidal rate of 20% or more and less than 40%); G: green foxtail, herbicidal effect (green foxtail; AAH 485 g/ha): 2 (Herbicidal rate of 20% or more and less than 40%); H: barnyard grass, herbicidal effect (barnyard grass [2]; AAH 485 g/ha): 3 (Herbicidal rate of 40% or more and less than 70%); I: wild oat, herbicidal effect (wild oat; AAH 485 g/ha): 0 (Herbicidal rate of 5% or less (almost no effect)); J: blackgrass, herbicidal effect (blackgrass; AAH 485 g/ha): 0 (Herbicidal rate of 5% or less (almost no effect)); K: Italian ryegrass, herbicidal effect (Italian ryegrass; AAH 485 g/ha): 0 (Herbicidal rate of 5% or less (almost no effect)); L: windgrass, herbicidal effect (windgrass; AAH 485 g/ha): 0 (Herbicidal rate of 5% or less (almost no effect)); M: velvetleaf, herbicidal effect (velvetleaf; AAH 485 g/ha): 1 (Herbicidal rate of 5% or more and less than 20%); N: redroot pigweed, herbicidal effect (redroot pigweed; AAH 485 g/ha): 4 (Herbicidal rate of 70% or more and less than 90%); O: lambsquarters, herbicidal effect (lambsquarters; AAH 485 g/ha): 4 (Herbicidal rate of 70% or more and less than 90%); P: chickweed, herbicidal effect (chickweed; AAH 485 g/ha): 3 (Herbicidal rate of 40% or more and less than 70%); Q: false cleavers, herbicidal effect (false cleavers; AAH 485 g/ha): 1 (Herbicidal rate of 5% or more and less than 20%); R: persian speedwell, herbicidal effect (persian speedwell; AAH 485 g/ha): 5 (Herbicidal rate of 90% or more (almost completely withered))
2 | CCCC(=O)Oc1c(C)nn(C)c(=O)c1-c1c(-c2ccc(Oc3ccccc3)cc2)sc2ccccc12 [1-150] |  |  |  |  |  |  |  |  |  |  |  |  |  |  |  |  | herbicidal effect on H (barnyard grass), rating 0-5 (barnyard grass [1]; 320 g/ha): 2 (Herbicidal rate of 20% or more and less than 40%); herbicidal effect on D (Chinese sprangletop), rating 0-5 (Chinese sprangletop; 320 g/ha): 3 (Herbicidal rate of 40% or more and less than 70%); herbicidal effect on E (rice flat sedge), rating 0-5 (rice flat sedge; 320 g/ha): 3 (Herbicidal rate of 40% or more and less than 70%); F: southern crabgrass, herbicidal effect (southern crabgrass; AAH 320 g/ha): 0 (Herbicidal rate of 5% or less (almost no effect)); G: green foxtail, herbicidal effect (green foxtail; AAH 320 g/ha): 0 (Herbicidal rate of 5% or less (almost no effect)); H: barnyard grass, herbicidal effect (barnyard grass [2]; AAH 320 g/ha): 0 (Herbicidal rate of 5% or less (almost no effect)); I: wild oat, herbicidal effect (wild oat; AAH 320 g/ha): 0 (Herbicidal rate of 5% or less (almost no effect)); J: blackgrass, herbicidal effect (blackgrass; AAH 320 g/ha): 0 (Herbicidal rate of 5% or less (almost no effect)); K: Italian ryegrass, herbicidal effect (Italian ryegrass; AAH 320 g/ha): 0 (Herbicidal rate of 5% or less (almost no effect)); L: windgrass, herbicidal effect (windgrass; AAH 320 g/ha): 0 (Herbicidal rate of 5% or less (almost no effect)); M: velvetleaf, herbicidal effect (velvetleaf; AAH 320 g/ha): 3 (Herbicidal rate of 40% or more and less than 70%); N: redroot pigweed, herbicidal effect (redroot pigweed; AAH 320 g/ha): 4 (Herbicidal rate of 70% or more and less than 90%); O: lambsquarters, herbicidal effect (lambsquarters; AAH 320 g/ha): 2 (Herbicidal rate of 20% or more and less than 40%); P: chickweed, herbicidal effect (chickweed; AAH 320 g/ha): 5 (Herbicidal rate of 90% or more (almost completely withered)); Q: false cleavers, herbicidal effect (false cleavers; AAH 320 g/ha): 5 (Herbicidal rate of 90% or more (almost completely withered)); R: persian speedwell, herbicidal effect (persian speedwell; AAH 320 g/ha): 5 (Herbicidal rate of 90% or more (almost completely withered))
3 | Cc1ccc2sc(-c3ccc4c(c3)OCCO4)c(-c3c(O)c(C)nn(C)c3=O)c2c1 [2-158] | 0 (Herbicidal rate of 5% or less (almost no effect)) | 1 (Herbicidal rate of 5% or more and less than 20%) | 4 (Herbicidal rate of 70% or more and less than 90%) | 0 (Herbicidal rate of 5% or less (almost no effect)) | 0 (Herbicidal rate of 5% or less (almost no effect)) | 0 (Herbicidal rate of 5% or less (almost no effect)) | 0 (Herbicidal rate of 5% or less (almost no effect)) | 0 (Herbicidal rate of 5% or less (almost no effect)) | 0 (Herbicidal rate of 5% or less (almost no effect)) | 0 (Herbicidal rate of 5% or less (almost no effect)) | 2 (Herbicidal rate of 20% or more and less than 40%) | 0 (Herbicidal rate of 5% or less (almost no effect)) | 0 (Herbicidal rate of 5% or less (almost no effect)) | 5 (Herbicidal rate of 90% or more (almost completely withered)) | 0 (Herbicidal rate of 5% or less (almost no effect)) | 5 (Herbicidal rate of 90% or more (almost completely withered)) | 
4 | CCCC(=O)Oc1c(C)nn(C)c(=O)c1-c1c(-c2ccc3c(c2)OCCO3)sc2ccc(C)cc12 [2-159] | 0 (Herbicidal rate of 5% or less (almost no effect)) | 0 (Herbicidal rate of 5% or less (almost no effect)) | 3 (Herbicidal rate of 40% or more and less than 70%) | 0 (Herbicidal rate of 5% or less (almost no effect)) | 0 (Herbicidal rate of 5% or less (almost no effect)) | 0 (Herbicidal rate of 5% or less (almost no effect)) | 0 (Herbicidal rate of 5% or less (almost no effect)) | 0 (Herbicidal rate of 5% or less (almost no effect)) | 0 (Herbicidal rate of 5% or less (almost no effect)) | 0 (Herbicidal rate of 5% or less (almost no effect)) | 2 (Herbicidal rate of 20% or more and less than 40%) | 5 (Herbicidal rate of 90% or more (almost completely withered)) | 0 (Herbicidal rate of 5% or less (almost no effect)) | 4 (Herbicidal rate of 70% or more and less than 90%) | 0 (Herbicidal rate of 5% or less (almost no effect)) | 4 (Herbicidal rate of 70% or more and less than 90%) | 
